Reference: article PMC5774622 (Biochimie, 2017)
Blank lines part the entries; values can stand above or below the molecule they belong to. Ends that are not written are not given here.

Key:
[1] = tested on: interaction between GST-CNA and GFP-TFEB; assay: GST pull-down of GFP-TFEB by GST-CNA; assay type: binding; details: quercetin 50 μM and 100 μM; GFP-TFEB transfected in HeLa cells
PVIVIT peptide = details: cited from earlier work
[2] = biological target: NFAT PRIEIT peptide (Homo sapiens); details: cited from earlier work
CN [3] = biological target: CN (Rattus norvegicus, UniProt P63100+P63329); assay: CN phosphatase colorimetric assay with RII phosphopeptide as substrate; assay type: biochemical
[4] = tested on: CNA in mouse brain lysates; assay: GST pull-down of CNA from mouse brain lysates; assay type: binding; details: addition of synthetic peptide to pull-down
purified recombinant CN = purified recombinant CN (Rattus norvegicus, UniProt P63100+P63329); assay: Fluorescence polarization
CN [5] = details: kinetics comparable to intact RII; cited from earlier work
[6] = tested on: TFEB nuclear translocation; details: cited from earlier work

purified recombinant CN, sequence (P63100 whole entry, other chains not shown): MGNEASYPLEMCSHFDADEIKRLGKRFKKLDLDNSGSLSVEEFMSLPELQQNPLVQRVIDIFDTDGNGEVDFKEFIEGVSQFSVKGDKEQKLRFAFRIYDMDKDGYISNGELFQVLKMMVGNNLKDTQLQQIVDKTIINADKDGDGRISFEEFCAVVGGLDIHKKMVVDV

Molecule: O=c1c(O)c(-c2ccc(O)c(O)c2)oc2cc(O)cc(O)c12 [quercetin]
effect on interaction between GST-CNA and GFP-TFEB [1]: blocks the interaction

Molecule: Calcineurin (from UniProt Q08209)
Kd (PVIVIT peptide): 0.5 µM | Kd [2]: 25 µM

IC50 (CN [3]): 130 µM
Molecule: ESILLVPPTWPKPLV [NFATc2-ILLVP]

Molecule: QSYLENPTSYHLQQS [TFEB-YLENP]
effect on interaction between GST-TFEB-YLENP and CNA [4]: greatly inhibited

IC50 (CN [3]): 131 µM
Molecule: GSSHLAPPNPDKQFL [RCAN1-HLAPP]

IC50 (purified recombinant CN): ~5 µM
Molecule: CC(C)C[C@H](NC(=O)[C@H](Cc1ccc(O)cc1)NC(=O)[C@H](CCC(N)=O)NC(=O)[C@@H](N)CC(=O)O)C(=O)N[C@@H](C)C(=O)N[C@H](C(=O)N1CCC[C@H]1C(=O)N[C@@H](CCC(N)=O)C(=O)N[C@@H](Cc1c[nH]cn1)C(=O)N1CCC[C@H]1C(=O)N[C@@H](Cc1ccc(O)cc1)C(=O)N[C@@H](CCC(N)=O)C(=O)N[C@@H](Cc1c[nH]c2ccccc12)C(=O)N[C@@H](C)C(=O)N[C@@H](CCCCN)C(=O)O)C(C)C [NFATc1-YLAVP]

Molecule: DLDVPIPGRFDRRVpSVAAE [RII phosphopeptide]
Vmax of dephosphorylation by CN (CN [5]): 1.7 µmol/min/mg

Molecule: C=CC[C@@H]1/C=C(\C)C[C@H](C)C[C@H](OC)[C@H]2O[C@@](O)(C(=O)C(=O)N3CCCC[C@H]3C(=O)O[C@H](/C(C)=C/[C@@H]3CC[C@@H](O)[C@H](OC)C3)[C@H](C)[C@@H](O)CC1=O)[C@H](C)C[C@@H]2OC [FK506]
TFEB nuclear translocation during starvation [6]: reduce TFEB nuclear translocation
